In patent US10149907B2, “Combinations of a photosensitizer with a hydrogen sulfide donor, thioredoxin inhibitor or nitroxide for use in photodynamic therapy” (UNIVERSITY OF EXETER, priority 2014, dated 2018):
Several values for one entry are separate records, joined by “and”; a condition that tells them apart may be missing. Identical values can stand only once. Like-named read-outs stand apart in the source and are kept apart here.

Assays:
A431 cells [1] = experiment: Photodynamic cell killing in the presence of inhibitors of the thioredoxin antioxidant system or nitroxides (annexin V-FITC/propidium iodide flow cytometry); format: cell-based, human
Description: After this treatment, the cells were irradiated for 5 min (630 nm, 25 J/cm^2), then washed with PBS and the culture medium was replaced, after which the cells were placed back under 2% O2 and incubated for a further 3 h. Following this final incubation, cell death was analysed by annexin V-FITC and propidium iodide staining in conjunction with flow cytometry.
(§1) Cell death analysis by flow cytometry was carried out using the annexin V-FITC/propidium iodide protocol. This protocol allows a quantitative assessment of cell death, particularly specific modes of death, and involves staining the cells with fluorescein isothiocyanate-conjugated annexin A5 (annexin V-FITC) and propidium iodide (PI). Positive staining with annexin V-FITC alone indicates an apoptotic cell; positive staining with PI alone indicates a necrotic cell and dual staining of both annexin V and PI indicates a “late apoptotic” cell.
(§2) From each flask being assessed, the old medium was removed and placed into a corresponding individual 15 ml Falcon tube in order to collect any cells that may have detached from the surface. The flask was washed once with 1 ml PBS; also deposited in the Falcon tubes. Trypsin (500 μl) was added to each flask and the flasks were returned to the incubator with their caps loosened. Cell detachment was monitored using an inverted light microscope, until 50% of the cells were detached. The flasks were then lightly tapped to detach the remainder of the cells. Medium (2 ml) was added to each flask in order to neutralise the trypsin present before being removed and dispensed into the Falcon tubes. One more wash with PBS was carried out in order to ensure any cells left in the flasks were collected. The Falcon tubes were then centrifuged at 490 g for 3 min, forming a pellet at the bottom of the tube. The supernatant was discarded, and the cells were re-suspended in 5 ml of PBS, in order to wash them, before being centrifuged again at 490 g for 3 min. The wash stage was carried out once more before re-suspending the cell pellet in 95 μl of ice cold calcium (Ca^2+) buffer (50 mM HEPES, 700 mM NaCl, 12.5 mM CaCl2, pH 7.4) and adding 5 μl 12.5 μg/ml of annexin V-FITC (final concentration, 1.25 μg/ml), under reduced light conditions to prevent bleaching of the FITC. The Falcon tubes were placed on ice and in the dark for 15 min to allow annexin V staining. After 15 min, 860 μl of Ca^2+ buffer (10 mM Hepes adjusted to pH 7.4, 140 mM NaCl and 2.5 mM CaCl2) was added, followed by 40 μl of 1 mg/ml PI in water (final concentration, 0.04 mg/ml) to give a final volume of 1 ml. The samples were then ready to be assessed by flow cytometry.
(§3) The following flow cytometry process of sample detection was used. When using annexin V-FITC and PI, the detectors being used were FL1 (λmax=520 nm) and FL3 (λmax=670 nm), respectively, each with their own logarithmic histogram generated by the software. The intensity of the fluorescence detected is measured on a logarithmic scale on the x-axis and the y-axis represents the number of cells detected at a given fluorescence intensity. A plot of FL1/FL3 produces a 4-quadrant graph, where unstained and untreated cells are located in the bottom left quadrant, representing any cells found in the 1st decade of the single plot logarithmic histograms. Single staining with annexin V-FITC and PI are located in the bottom right and top left quadrant, respectively, and dual staining is located in the top right quadrant. These quadrants represent any cells detected above the 1st decade of the logarithmic histograms.

A431 cells [2] = experiment: Mitochondrial reactive oxygen species generation during photodynamic irradiation, MitoSOX flow cytometry; format: cell-based, human
Description: A431 cells were treated concurrently with AP39-C10 (10, 100 or 1000 nM) for 5 hours, MAL (1 mM) for 3 hours and MitoSOX (2.5 μM) for 1 hour, after which they were irradiated for 5 min (630 nm, 25 J/cm^2) and MitoSOX (mito-2-OH-E^+) fluorescence, indicative of mitochondrial oxidant production, was immediately analysed by flow cytometry. Results are set out in FIG. 23.
Mitochondria-targeted dihydroethidium (i.e. MitoSOX) was used to assess the production of mitochondrial reactive oxygen species (ROS) by PpIX photochemical reactions and to determine the effects of AP39-C10 on this process. All of the results are represented as a percentage of the untreated controls (100.0±8.5%). The fluorescence of the photoirradiated cells, which had been pre-treated with MAL, was 193.7±7.3% (p<0.001 c.f. untreated controls).

A431 cells [3] = experiment: MAL-induced PpIX accumulation, fluorescence plate reader; format: cell-based, human; conditions: for effect on PpIX accumulation compared to 1 mM MAL: 10, 100 and 1000 nM 5 hours + MAL 1 mM 3 hours, FIG. 21, 22
Description: After treatment, the cells were washed with PBS and a final 100 μl PBS was pipetted into each well for fluorescence readings. The fluorescence of PpIX was measured using a BMG Pherastar plate reader with a 410 nm excitation filter and a 630 nm emission filter.
A431 cells were treated concurrently with slow-releasing hydrogen sulfide donors (1 μM) for 5 hours and MAL (1 mM) for 3 hours, after which PpIX accumulation was measured by fluorescence plate reader (excitation 410 nm, […]). Co-treatment with CP94 (50 μM) was used as a positive control and for comparison.

A431 cells [4] = experiment: cells; format: cell-based; conditions: for increase in cell killing compared to the use of MAL alone: 10 nM; for potency compared to CP94 (50 μM) exerting a similar degree of potentiation: 10 nM vs CP94 50 μM; for modes of cell death: 1 mM MAL + SRHD 10, 100 or 1000 nM + irradiation, FIG. 19
Description: A431 cells (human epithelial squamous cell carcinoma cells) were seeded at a density of 1×10^6 cells/ml in T12.5 cm^2 flasks and incubated under 2% O2 for 48 h prior to treatment. After 24 h, the culture medium was replaced and the cells were placed back into the incubators under 2% O2. Following this incubation period, the culture medium was then removed and the flasks were washed with PBS. The cells were then treated with one of the SRHDs and incubated at 2% O2 for 2 h, after which MAL was added to a final concentration of 1 mM and the cells were incubated at 2% O2 for 3 h. This meant in total, the cells were treated with the SRHDs for 5 h.
Following this final incubation, cell death was analysed by annexin V-FITC and propidium iodide staining in conjunction with flow cytometry.
as §1
as §2, with “The wash stage was carried out once more before re-suspending the cell pellet in 95 μl of ice cold calcium (Ca^2+) buffer (50 mM HEPES, 700 mM NaCl, 12.5 mM CaCl2, pH 7.4) and adding 5 μl 12.5 μg/ml of annexin V-FITC (final concentration, 1.25 μg/ml), under reduced light conditions to prevent bleaching of the FITC.” left out, “After 15 min, 860 μl of Ca^2+ buffer (10 mM Hepes adjusted to pH 7.4, 140 mM NaCl and 2.5 mM CaCl2) was added, followed by 40 μl of 1 mg/ml PI in water (final concentration, 0.04 mg/ml) to give a final volume of 1 ml.” left out
as §3

A431 cells [5] = conditions: for tolerance over 72 hours: 0-1000 nM
Description: A431 cells were seeded at a density of 1×10^5 cells/ml in 96 well plates and incubated under 2% O2 for 48 h prior to treatment. After 24 h, the culture medium was replaced and the cells were placed back into the incubators under 2% O2. Following this incubation period, the culture medium was then removed and the plates were washed with PBS. The cells were then treated with 1 mM MAL in the absence or presence of one of the compounds of interest and then incubated again at 2% O2 for 3 h. For experiments carried out with SRHDs, this treatment step was carried out for 5 h at 2% O2. After treatment, the cells were washed with PBS, the culture medium was replaced and the cells were placed back under 2% O2 for 3 h. Following this final incubation, cell death was analysed using the resazurin viability assay.
Resazurin (7-hydroxy-3H-phenoxazin-3-one 0-oxide) is a weakly fluorescent blue dye used primarily in oxidation-reduction cell viability assays. Irreversible NADH-dependent reduction by the mitochondria in mammalian cells leads to the production of resorufin, a highly fluorescent product with excitation at 571 nm, emission at 585 nm.
A431 cells were seeded into 96 well plates at a density of 1.5*10^6 cells per ml (200 μl per well, 3*10^5 cells) and incubated for 24 h to adhere. Following incubation, the cells were washed and treated with the compound of interest for the relevant time, and then washed with PBS. […] After a 2 h incubation, the fluorescence of each well was measured (excitation: 571 nm, emission: 585 nm) using a fluorescence plate reader. Data from these experiments was plotted as a percentage of cell viability compared to untreated control cells.

A431 cells [6] = experiment: MAL-induced PpIX accumulation, fluorescence plate reader; format: cell-based, human; conditions: 3 hours
[7] = MAL 1 mM + SRHD 10 nM (5 hours), irradiated
[8] = MAL 1 mM + SRHD 100 nM (5 hours), irradiated
[9] = MAL 1 mM + SRHD 1000 nM (5 hours), irradiated
[10] = 1 mM MAL + SRHD 10 nM (5 h) + irradiation, FIG. 18
[11] = 1 mM MAL + SRHD 100 nM (5 h) + irradiation, FIG. 18
[12] = 1 mM MAL + SRHD 1 μM (5 h) + irradiation, 3 h post-irradiation
[13] = 1 mM MAL + SRHD 1000 nM (5 h) + irradiation, FIG. 18
[14] = dark toxicity, without irradiation, SRHD 1 μM, 5 h, FIG. 1, 3

`COC(=O)CCC(=O)CN` [MAL, methyl aminolaevulinate] was tested, and the cell death (A431 cells [1]; 1 mM MAL 3 h and irradiation (630 nm, 25 J/cm2) alone, no co-treatment) was 32.5±3.6% and 29.1±3.8% and 34.4±3.2% and 26.8±1.9% and 24.6±4.2%, the “modes of cell death” value (A431 cells [1]; 1 mM MAL and irradiation alone, compared to untreated controls) was “increase in all types of cell death” and the “MitoSOX fluorescence, percentage of untreated controls” value (A431 cells [2]; MAL 1 mM alone, photoirradiated) was 193.7±7.3% and 220.1±8.5% and 143.3±4.8% and 207.4±16.7%. The “PpIX accumulation compared to untreated controls” value (A431 cells [3]; MAL 1 mM, 3 hours) was “significantly increased PpIX accumulation compared to untreated controls” and the cytotoxicity at 1000 µM (A431 cells [4]; Homo sapiens, A-431, light or radiation study, 3 h, read-out: cell death, 1 mM MAL 3 h and irradiation (630 nm, 25 J/cm2) in the absence of any SRHD) was 27.5 ± 5.5%.
In the case of `NC(=S)c1ccc(OC(=O)CCCCCCCCC[P+](c2ccccc2)(c2ccccc2)c2ccccc2)cc1` [AP123-C10], the “MitoSOX fluorescence, percentage of untreated controls” value (A431 cells [2]; [7]) is reported as 237.4±8.2%, the “MitoSOX fluorescence, percentage of untreated controls” value (A431 cells [2]; [8]) is reported as 245.3±10.6% and the “MitoSOX fluorescence, percentage of untreated controls” value (A431 cells [2]; [9]) is reported as 248.1±15.1%. The “effect on PpIX accumulation compared to 1 mM MAL” value (A431 cells [3]) was “no effect on PpIX accumulation across any of the tested concentrations”, the “increase in cell killing compared to the use of MAL alone” value (A431 cells [4]) was about 2 fold and the “potency compared to CP94 (50 μM) exerting a similar degree of potentiation” value (A431 cells [4]) was 5000 fold. The cell death (A431 cells [4]; [10]) was 57.2±1.3%, the cell death (A431 cells [4]; [11]) was 56.5±2.7% and the cell death (A431 cells [4]; [12]) was 50.9±6.5%. For the same compound, the cell death (A431 cells [4]; [13]) was 66.7±5.6%, the “modes of cell death” value (A431 cells [4]) was “a further increase in apoptosis and late apoptosis, with no apparent effect on necrotic cell death” and the cell death (A431 cells [4]; [14]) was 14.5±0.5%. The “tolerance over 72 hours” value (A431 cells [5]; 72 hours) was “well tolerated at each concentration tested” and the “cell viability, percentage of untreated control” value (“cell viability, percentage” for short) (A431 cells [5]; 500 μM, 5 hours, FIG. 15, 16) was 62.6±9.1%.
For `O=C(CCCCCCCCC[P+](c1ccccc1)(c1ccccc1)c1ccccc1)Oc1ccc(-c2cc(=S)ss2)cc1` [AP39-C10], the “MitoSOX fluorescence, percentage of untreated controls” value (A431 cells [2]; [7]) was 207.3±10.7%, the “MitoSOX fluorescence, percentage of untreated controls” value (A431 cells [2]; [8]) was 227.1±3.5% and the “MitoSOX fluorescence, percentage of untreated controls” value (A431 cells [2]; [9]) was 214.3±6.4%. The “effect on PpIX accumulation compared to 1 mM MAL” value (A431 cells [3]) was “no effect on PpIX accumulation across any of the tested concentrations”, the “increase in cell killing compared to the use of MAL alone” value (A431 cells [4]) was about 2 fold and the “potency compared to CP94 (50 μM) exerting a similar degree of potentiation” value (A431 cells [4]) was 5000 fold. It also gave a cell death (A431 cells [4]; [10]) of 50.7±3.1%, a cell death (A431 cells [4]; [11]) of 53.1±2.3% and a cell death (A431 cells [4]; [12]) of 45.3±1.9%. For the same compound, the cell death (A431 cells [4]; [13]) was 50.2±4.9%, the “modes of cell death” value (A431 cells [4]) was “a further increase in apoptosis and late apoptosis, with no apparent effect on necrotic cell death” and the cell death (A431 cells [4]; [14]) was 12.1±4.9%. The “tolerance over 72 hours” value (A431 cells [5]; 72 hours) was “well tolerated at each concentration tested”, the “cell viability, percentage” value (A431 cells [5]; 1000 nM, 72 hours, FIG. 17) was 94.1±2.6% and the “cell viability, percentage” value (A431 cells [5]; 500 μM, 5 hours, FIG. 15, 16) was 59.3±13.3%.
In the case of `CCc1c(O)c(O)cc[n+]1CC.[Cl-]` [CP94], the “increase in PpIX accumulation compared to MAL alone” value (A431 cells [6]; 50 μM + MAL 1 mM, FIG. 35) is reported as 223.2±26.1%, the “peak response, increase in PpIX accumulation compared to MAL alone” value (A431 cells [6]; peak at TEMPO 5 mM, MitoTEMPO 100 μM, CP94 100 μM, MAL 1 mM) is reported as 228.1±42.3% and the “MitoSOX fluorescence, percentage of untreated cells” value (A431 cells [2]; MAL 1 mM + co-treatment 50 μM, 3 hours, irradiated) is reported as 198.4±7.7%. The “effect on PpIX accumulation compared to 1 mM MAL alone” value (A431 cells [3]; CP94 50 μM + MAL 1 mM, positive control) was “significantly increased PpIX accumulation”.
